Measurements taken from the supplement of paper PMC5412046.
Structures can show the parent of a compound that is named as a salt.

Key:
[1] = test system: SB.msgc-1; test: AC50 for growth inhibition (viability) (log10 M); higher = less potent; settings: SB.msgc-1 (sporadic gastric cancer)
Method in brief: (§1)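 Values are log half-maximal activity concentrations from four-parameter fits of DMSO-normalised viability, restricted to high-quality curve classes. Patient-derived gastric cancer cells, hereditary or sporadic, were plated at 500 cells per 1536 well in 5 μL medium and given 23 nL compound in DMSO by pintool across 11 threefold dilutions, the top final concentration being 46 μM. Viability was read by ViewLux luminescence after 48 h and a 30 min CellTiter-Glo step at room temperature.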

[2] = test system: SB.mhdgc-1; test: as above; settings: SB.mhdgc-1 (hereditary c.1380delA CDH1 gastric cancer)
Method in brief: as §1

Structure (SMILES) | AC50 for growth inhibition (log10 M) [1] | AC50 for growth inhibition (log10 M) [2]
COC1=CC=C(C(=C1)OC(C)C)C/2=N/[C@@H]([C@@H](N2C(=O)N3CCNC(=O)C3)C4=CC=C(Cl)C=C4)C5=CC=C(Cl)C=C5 [Nutlin-3] | -4.78 | -5.93
COc1cccc2cc(-c3nc(C4CCC(C(=O)O)CC4)n4ncnc(N)c34)[nH]c12 (centres undefined) [OSI-027] | -5.33 | -7.58
C#Cc1cccc(Nc2ncnc3cc(OCCOC)c(OCCO)cc23)c1 [OSI-420] | -6.03 | -6.23
COC1=CC(c2cc3ccccc3[nH]2)=N/C1=C/c1[nH]c(C)cc1C [Obatoclax] | -5.33 | -5.43
CCC(CCCC)COC(=O)C(\C#N)=C(\c1ccccc1)c2ccccc2 (centres undefined) [Octocrylene] | -4.88 | -4.88
CC(C)(F)C[C@H](N[C@@H](c1ccc(-c2ccc([S+](C)(=O)[O-])cc2)cc1)C(F)(F)F)C(=O)NC1(C#N)CC1 [Odanacatib] | -4.88 | -5.38
FC1=C(C=C(C\C2=N\NC(=O)C3=C2C=CC=C3)C=C1)C(=O)N4CCN(CC4)C(=O)C5CC5 [Olaparib] | -4.78 | -5.48
COc1ccc(/C=C\c2cc(OC)c(OC)c(OC)c2)cc1NC(=O)[C@H](N)CO [Ombrabulin] | -8.38 | -7.78
COC[C@H](NC(=O)c1cnc(C)s1)C(=O)N[C@@H](COC)C(=O)N[C@@H](Cc1ccccc1)C(=O)[C@@]1(C)CO1 [Oprozomib] | -6.93 | -6.93
Cc1[nH]c(/C=C2\C(=O)Nc3ccccc32)c(C)c1CCC(=O)O [Orantinib] | -5.13 | -6.48
C=C1C(=O)[C@@]23C(CC[C@@H]1[C@H]2O)[C@@]12CO[C@]3(O)[C@@H](O)[C@@H]1C(C)(C)CC[C@@H]2O (some centres undefined) [Oridonin] | -4.73 | -4.98
CC(=O)N(C)C1(c2ccccc2)CCN(CCC[C@]2(c3ccc(Cl)c(Cl)c3)CCCN(C(=O)c3ccccc3)C2)CC1 [Osanetant] | -4.78 | -4.98
COC1=C(CC=C(C)C)C2=C(\C=C/C(=O)O2)C=C1 [Osthol] | -5.53 | -5.78
O=C1[O][Pt]2([NH]C3CCCCC3[NH]2)[O]C1=O (centres undefined) [Oxaliplatin] | -5.58 | -4.73
O=C(C=CC#Cc1cccc(N[S+](=O)([O-])c2ccccc2)c1)NO [Oxamflatin] | -5.58 | -5.28
C=CCc1cccc(/C=N/NC(=O)CN2CCN(Cc3ccccc3)CC2)c1O [PAC-1] | -5.23 | -5.13
C[C@]1(CO)CN(c2cc(C(=O)Nc3ccc4c(c3)-c3c(c(C(N)=O)nn3-c3ccc(F)cc3)CC4)c(Cl)cn2)C[C@@]1(C)CO [PF-184] | -5.08 | -5.43
Cc1cc(C[S+](=O)([O-])c2ccccc2)cc(OCc2ccc(CN3CCC[C@@H]3CO)cc2)c1 [PF-543] | -4.83 | -4.78
CN1CCN(c2cc(C(=O)Nc3ccc4c(c3)-c3c(c(C(N)=O)nn3-c3ccc(F)cc3)CC4)c(Cl)cn2)CC1 [PHA-408] | -5.93 | -5.88
Oc1cccc(-c2nc(N3CCOCC3)c3oc4ncccc4c3n2)c1 [PI-103] | -4.92 | -6.12
Cc1ccc([N+](=O)[O-])cc1[S+](=O)([O-])N(C)/N=C/c1cnc2ccc(Br)cn12 [PIK-75] | -7.98 | -8.03
COC1=CC=C2/C3=N/CCN3\C(=N/C2=C1OC)NC(=O)C4=CC=CN=C4 [PIK-90] | -4.98 | -5.33
CC1=C(C=CC=C1)N2\C(=N/C3=C(C(=CC=C3)C)C2=O)C[N]4N=CC5=C4N=CN=C5N [PIK-293] | -7.08 | -6.73
CCn1nnc2c(N3CCOCC3)nc(-c3ccc(NC(=O)Nc4ccc(C(=O)N5CCN(C)CC5)cc4)cc3)nc21 [PKI-402] | -5.88 | -5.43
Nc1ncnc2c1c(-c1cnc3[nH]ccc3c1)nn2C1CCCC1 [PP-121] | -5.38 | -5.78
CC(C)n1nc(-c2cc3cc(O)ccc3[nH]2)c2c(N)ncnc21 [PP-242] | -5.28 | -6.93

Structure (SMILES) | AC50 for growth inhibition (log10 M) [1] | AC50 for growth inhibition (log10 M) [2]
CCc1ccc(C(=O)Nc2cc(CN3CCN(C)CC3)cc(C(F)(F)F)c2)cc1C#Cc1cnc2ccnn2c1 [PRP003-013] | -4.78 | -5.13
CCC(C)SSc1ncc[nH]1 (centres undefined) [PX-12] | -4.58 | -4.63
Cc1[nH]c2ccccc2c1CCNCc1ccc(/C=C/C(=O)NO)cc1 [Panobinostat] | -6.98 | -6.08
COc1ccc(Cc2nccc3cc(OC)c(OC)cc23)cc1OC [Papaverine hydrochloride] | -4.73 | -6.88
ClC1=CC=C(CCCOC/2=N/NC(=O)C(=C2NCC3=CN=CC=C3)/Br)C=C1 [Parogrelil] | -4.83 | -5.13
C=C1C(=O)O[C@@H]2[C@H]3O[C@]3(C)CC/C=C(\C)CC[C@@H]12 [Parthenolide] | -4.83 | -5.18
CCOc1cc2ncc(C#N)c(Nc3ccc(F)c(Cl)c3)c2cc1NC(=O)/C=C/CN(C)C [Pelitinib] | -7.43 | -7.38
NC/1=N/C(=O)C2=C([NH]C=C2CCC3=CC=C(C=C3)C(=O)N[C@@H](CCC(O)=O)C(O)=O)N1 [Pemetrexed disodium] | -6.23 | -6.33
CC1=CC=C(C=C1)N(C\C2=N\CCN2)C3=CC=CC(=C3)O [Phentolamine mesilate] | -4.68 | -4.98
O=C(CCc1ccc(O)cc1)c1c(O)cc(O)cc1O [Phloretin] | -7.13 | -7.33
CCCCN1CCC(CNC(=O)c2c3n(c4ccccc24)CCCO3)CC1 [Piboserod hydrochloride] | -5.53 | -5.53
COc1cc([C@@H]2c3cc4c(cc3[C@H](O)[C@H]3COC(=O)[C@@H]23)OCO4)cc(OC)c1OC [Picropodophyllin] | -6.73 | -6.48
Nc1nccc(-c2ccc3noc(-c4ccc(Cl)cc4)c3c2)n1 [Pim 1 inhibitor 2] | -5.03 | -5.48
O=C(NC[C@H](O)CO)c1ccncc1Nc1ccc(I)cc1F [Pimasertib] | -6.38 | -4.73
CC[C@@H]1/C=C(\C)C[C@H](C)C[C@H](OC)[C@H]2O[C@@](O)(C(=O)C(=O)N3CCCC[C@H]3C(=O)O[C@H](/C(C)=C/[C@@H]3CC[C@H](Cl)[C@H](OC)C3)[C@H](C)[C@@H](O)CC1=O)[C@H](C)C[C@@H]2OC [Pimecrolimus] | -4.93 | -4.98
COc1cccc2c1C(=O)c1c(O)c3c(c(O)c1C2=O)C[C@@](O)(C(=O)CO)C[C@@H]3O[C@H]1C[C@H](N)[C@H](O[C@H]2CCCCO2)[C@H](C)O1 [Pirarubicin] | -5.68 | -6.08
CC(C)(C)c1[nH]cnc1/C=c1\[nH]c(=O)/c(=C/c2ccccc2)[nH]c1=O [Plinabulin] | -6.07 | -7.62
Cc1cc(Nc2ncc3c(n2)N(C)C(=O)N(c2cc(NC(=O)c4cccc(C(F)(F)F)c4)ccc2C)C3)n(C)n1 [Pluripotin] | -6.08 | -5.23
Cc1ccc(C(=O)Nc2ccc(CN3CCN(C)CC3)c(C(F)(F)F)c2)cc1C#Cc1cnc2cccnn12 [Ponatinib] | -4.88 | -5.78
CCCCc1nc2cc(/C=C/C(=O)NO)ccc2n1CCN(CC)CC [Pracinostat] | -6.88 | -5.33
C#CCC(Cc1cnc2nc(N)nc(N)c2n1)c1ccc(C(=O)N[C@@H](CCC(=O)O)C(=O)O)cc1 (some centres undefined) [Pralatrexate] | -7.28 | -6.58
CCc1nc(N)nc(N)c1-c1ccc(Cl)cc1 [Pyrimethamine] | -5.48 | -5.38
O=C(CCCCCCC(=O)Nc1cccnc1)NO [Pyroxamide] | -5.33 | -5.53
OC1=CC2=C(C(=C1)O)C(=O)\C(=C(/O2)C3=CC(=C(O)C=C3)O)O [Quercetine] | -4.68 | -5.13
Cn1cc(CNCC2CCN(c3ncc(C(=O)NO)cn3)CC2)c2ccccc21 [Quisinostat hydrochloride] | -7.23 | -6.73
COc1ccc(F)c(F)c1C(=O)c1cnc(NC2CCN([S+](C)(=O)[O-])CC2)nc1N [R-547] | -6.03 | -5.73
